{"source": "patent US20190314345A1", "about": "“CALCINEURIN INHIBITOR AND NON-STEROIDAL ANTI-INFLAMMATORY DRUG TO REDUCE RISK OF POST-IMAGING PANCREATITIS” (UNIVERSITY OF PITTSBURGH - OF THE COMMONWEALTH SYSTEM OF …, priority 2016, published 2019)", "key": {"calcineurin": {"system": "calcineurin", "assay": "NFAT-luciferase activity assay in mouse primary acinar cells", "assay_type": "cell-based", "conditions": "30 min pre-treatment; FK506 24 μM, CsA 16 μM, BAPTA-AM 64 μM", "experimental": "Acinar cells were infected with Ad-NFAT-luciferase following a previously described procedure^10, 15, 16. The construct includes a luciferase gene placed downstream of an IL-4 promoter which contains nine tandem NFAT binding sites^10. Acinar cells were incubated with the NFAT-driven luciferase adenovirus for 1.5 hr prior to stimulation. All of the stated inhibitors were added for 30 min prior to stimulation with RC. NFAT-luciferase was measured using the luciferase assay system. Briefly, cells were spun at 1,000 rpm for 5 min, washed with PBS, and lysed using reporter lysis 5× buffer (Promega #E397A, Madison, Wis.). Samples were vortexed and spun at 12,000 g for 2 min. Supernatant was plated, and luminescence was measured using a Synergy H1 plate reader (BioTek, Winooski, Vt.) and normalized to total protein."}, "NF-κB": {"system": "NF-κB", "assay": "NF-κB-luciferase activity assay in AR42J cells", "assay_type": "cell-based", "conditions": "FK506 24 μM, CsA 16 μM; P<0.05", "experimental": "AR42J cells were differentiated towards an acinar phenotype by administering dexamethasone (100 nM) for 48-72 hr^17. AR42J cells were infected with Ad-NF-κB luciferase 16 h prior to stimulation using a previously described method^12. Following a wash with DMEM/F12 medium, acinar cells were evenly distributed in a 48-well plate and incubated for 30 min at 37° C. They were incubated with RC at varying concentrations and times. NF-κB-luciferase was measured using a commercially available luciferase assay (Promega, Madison, Wis.). Briefly, cells were spun at 1,000 rpm for 5 min, washed with PBS, and lysed using reporter lysis 5× buffer (Promega, catalog no. E397A). Samples were vortexed and spun at 12,000×g for 2 min. The supernatant was plated, and luminescence was measured using a Synergy H1 plate reader (BioTek, Winooski, Vt.) and normalized to […]."}, "primary acinar cells": {"system": "primary acinar cells", "assay": "Cell necrosis assay (propidium iodide uptake) in primary acinar cells", "assay_type": "cell-based, mouse", "conditions": "6 hr incubation; U73122 5 μM, 2-APB 100 μM, BAPTA 64 μM, IKK-2 20 μM, FK506 24 μM, CsA 16 μM", "experimental": "Acinar cells were incubated in a 48-well plate with 50 μg/ml of propidium iodide (PI) for 30 min prior to addition of RC. Fluorescence was measured at 536 nm excitation and 617 nm emission wavelengths over time a time course of up to 6 hr. Fluorescence was measured after cell lysis with 0.5% Triton-X 100 was used to normalize the results relative to total DNA."}, "pancreatic acinar cells": {"system": "pancreatic acinar cells", "assay": "ATP level measurements in acinar cells", "assay_type": "cell-based, mouse", "conditions": "RC 12% for 3.5 hr", "experimental": "Following isolation, pancreatic acinar cells were cultured in DMEM/F12 Medium (0.5 ml/well of a 48-well plate) at 37° C. water bath and treated with RC±FK506. Cells were collected at indicated time points and lysed in 100 lysis buffer (100 mM Tris pH 7.75, 4 mM EDTA). ATP levels were measured from 20 μl aliquots of acinar cell lysates using the ENLITEN luciferase/luciferin reagent (Promega catalog no. FF2021)."}, "[1]": {"system": "IL-6, GADD45B, IL-1β expression", "assay": "Real-time PCR gene expression from the pancreatic head", "assay_type": "in vivo, mouse", "conditions": "RC exposure, with or without FK506 pretreatment", "experimental": "Total RNA from the pancreatic head was obtained by homogenizing 40 mg of tissue in 2 ml of TRIzol reagent (Life Technologies; Grand Island N.Y.) at 4° C. and immediately flash frozen in liquid nitrogen. Samples were thawed on ice and centrifuged at 12,000×g for 10 min at 4° C. The supernatant was diluted with 200 μl of chloroform and centrifuged at 12,000×g for 15 min at 4° C. The upper aqueous phase was treated with 0.5 ml of isopropanol and centrifuged at 10,000×g for 10 min at 4° C. The pellet was resuspended with 150 μl of 75% ethanol and centrifuged at 7500×g for 5 min at 4° C. The pellet was air-dried and dissolved in 100 μl of nuclease-free water. Total RNA samples were used to generate cDNA using the iScript Advanced cDNA synthesis Kit (Bio Rad; Hercules, Calif.).\nQuantitative real-time PCR (rtPCR) was performed to determine the relative expression of the cytokines IL-6 and IL-1β as well as the cell growth arrest and DNA-damage inducible gene GADD45B. The primer pairs for each as well as a GAPDH control were obtained as part of the PrimePCR-PreAMP SYBR Green Assay (Bio Rad; unique assay ID # qMmuCEP0054186, qMmuCID0005641, qMmuCEP0039581). rtPCR reactions were carried out in 20 μl volume reactions using the SsoAdvanced Universal Supermix SYBR Green system (Bio Rad). The reactions contained 1× SsoAdvanced Universal SYBR Green Supermix, 300 nM forward Primer, 300 nM reverse primer and 100 ng cDNA. rtPCR conditions were 95° C. for 10 sec and 60° C. for 30 sec for 35 cycles on a Bio Rad CFX96 Touch thermocycler (Bio Rad). Results for the expression of mRNA were normalized to expression of […] and are represented relative to expression levels for each of the control groups."}, "[2]": {"system": "duct manipulation (DM) model in mice", "assay": "Duct manipulation (DM) mild model with intraductal Cn inhibitors", "assay_type": "in vivo, mouse", "conditions": "FK506 1 μM, CsA 10 μM", "experimental": "PEP was induced as previously described^73. Briefly, 100 μl iohexol (Omnipaque, GE Healthcare, Princeton, N.J.) was infused retrograde into the biliopancreatic duct at a rate of 20 μl/min for 5 min. Mice from the ductal manipulation (DM) group received retrograde infusion of 50 μl normal saline into pancreatic ductal at a lower rate of 10 μl/min for 5 min. Mice were euthanized 24 hr after PEP induction by CO2 inhalation and cervical dislocation. Mice from the sham group received laparotomy only. The pancreas, duodenum, and spleen were placed en bloc in a cassette in order to maintain anatomical orientation (FIG. 18A). The tissues were fixed in 4% paraformaldehyde at room temperature for 24 hr. Paraffin-embedded sections were stained with hematoxylin and eosin (HE). Ten systematically selected fields at 200× magnification were graded in a blinded fashion from the head of the pancreas, which was identified by its juxtaposition to the duodenum. The grading score gave equal weight (from 0 to 3) for edema, inflammatory infiltration, and necrosis, as described^5. Edema indices were further delineated objectively by performing intensity thresholding using ImageJ software (NIH, Bethesda, Md.). […] Labelled areas within the parenchyma were marked as edema, and their surface area was calculated as a percentage of the total parenchymal area."}, "[3]": {"assay": "Dissolution in ready-to-use iohexol formulation", "assay_type": "physicochemical", "conditions": "FK506 1 μM, CsA 10 μM"}, "PEP model in mice": {"system": "PEP model in mice", "conditions": "in vivo model of PEP in mice; earlier work; cited from earlier work"}}}
{"smiles": "C=CC[C@@H]1/C=C(\\C)C[C@H](C)C[C@H](OC)[C@H]2O[C@@](O)(C(=O)C(=O)N3CCCC[C@H]3C(=O)O[C@H](/C(C)=C/[C@@H]3CC[C@@H](O)[C@H](OC)C3)[C@H](C)[C@@H](O)CC1=O)[C@H](C)C[C@@H]2OC", "note": "[FK506, tacrolimus]", "values": [{"measurement": "effect on RC-induced rise in NFAT-luciferase", "setting": "calcineurin", "value": "largely prevented"}, {"measurement": "reduction of RC-induced NF-κB", "setting": "NF-κB", "value": 73, "unit": "%"}, {"measurement": "effect on RC (12%)-induced acinar cell injury (PI uptake)", "setting": "primary acinar cells", "value": "prevented"}, {"measurement": "effect on RC-induced ATP depletion", "setting": "pancreatic acinar cells", "value": "failed to prevent ATP depletion"}, {"measurement": "gene expression of GADD45B", "setting": "[1]", "value": "significant reduction"}, {"measurement": "gene expression of IL-1β", "setting": "[1]", "value": "trend toward reduction"}, {"measurement": "gene expression of IL-6", "setting": "[1]", "value": "significant reduction"}, {"measurement": "effect on mild histological damage seen with DM", "setting": "[2]", "value": "did not affect"}, {"measurement": "dissolution in the ready-to-use iohexol formulation", "setting": "[3]", "value": "easily dissolved"}, {"measurement": "effect of systemic frequent prophylactic dosing on PEP", "setting": "PEP model in mice", "value": "prevented PEP"}]}
